Results on one compound are retold here after ChEMBL document CHEMBL4418912, “Methods of identifying antagonists of the hTAS2R46 bitter taste receptor” (2014).

Type in all cases: functional, cell-based
Test [1] has as its target T1, Taste receptor type 2 member 7 (Homo sapiens) (UniProt Q9NYW3).
T1 sequence (whole entry): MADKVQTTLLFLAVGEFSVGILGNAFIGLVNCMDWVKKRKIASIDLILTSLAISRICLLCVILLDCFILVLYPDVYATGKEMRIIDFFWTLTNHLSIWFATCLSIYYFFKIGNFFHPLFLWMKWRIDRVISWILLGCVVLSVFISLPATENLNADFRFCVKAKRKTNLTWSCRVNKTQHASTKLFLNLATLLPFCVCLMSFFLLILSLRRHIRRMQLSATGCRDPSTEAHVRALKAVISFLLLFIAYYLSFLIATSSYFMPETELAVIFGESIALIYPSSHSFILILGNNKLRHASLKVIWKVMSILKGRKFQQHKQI
The test can be described thus: Agonist activity at recombinant human N-terminal rat ST3 receptor-fused TAS2R7 expressed in HEK293T cells co-expressing Galpha16gust44 assessed as increase in intracellular calcium level at 100 uM by FLIPR assay.

Test [2] deals with T2, Taste receptor type 2 member 38 (Homo sapiens) (UniProt P59533).
T2 sequence (whole entry): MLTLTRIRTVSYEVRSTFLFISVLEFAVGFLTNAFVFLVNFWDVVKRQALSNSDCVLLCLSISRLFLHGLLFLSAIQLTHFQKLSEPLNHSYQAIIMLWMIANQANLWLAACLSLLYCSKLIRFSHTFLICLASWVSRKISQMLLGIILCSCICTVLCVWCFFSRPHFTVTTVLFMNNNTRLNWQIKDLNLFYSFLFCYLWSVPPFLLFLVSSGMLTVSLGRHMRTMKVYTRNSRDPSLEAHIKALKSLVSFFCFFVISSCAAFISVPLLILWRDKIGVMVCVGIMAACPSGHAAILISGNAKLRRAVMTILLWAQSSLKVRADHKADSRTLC
Put plainly: Agonist activity at recombinant human N-terminal rat ST3 receptor-fused TAS2R38 expressed in HEK293T cells co-expressing Galpha16gust44 assessed as increase in intracellular calcium level at 100 uM by FLIPR assay.

Test [3] addresses T3, Taste receptor type 2 member 31 (Homo sapiens) (UniProt P59538).
T3 sequence (whole entry): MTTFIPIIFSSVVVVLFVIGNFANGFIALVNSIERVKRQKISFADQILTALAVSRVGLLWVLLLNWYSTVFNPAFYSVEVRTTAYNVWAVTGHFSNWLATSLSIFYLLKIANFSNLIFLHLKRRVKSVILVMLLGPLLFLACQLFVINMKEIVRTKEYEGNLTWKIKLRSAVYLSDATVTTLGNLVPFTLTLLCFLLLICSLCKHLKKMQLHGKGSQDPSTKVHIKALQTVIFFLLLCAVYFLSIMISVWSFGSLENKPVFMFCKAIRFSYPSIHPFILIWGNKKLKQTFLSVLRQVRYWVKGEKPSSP
Put plainly: Agonist activity at recombinant human N-terminal rat ST3 receptor-fused TAS2R44 expressed in HEK293T cells co-expressing Galpha16gust44 assessed as increase in intracellular calcium level at 100 uM by FLIPR assay. On the technique in general: Calcium assays in cells follow changes in intracellular calcium, usually with a dye or a luminescent sensor.

For test [4], the target named is T4, Taste receptor type 2 member 3 (Homo sapiens) (UniProt Q9NYW6).
T4 sequence (whole entry): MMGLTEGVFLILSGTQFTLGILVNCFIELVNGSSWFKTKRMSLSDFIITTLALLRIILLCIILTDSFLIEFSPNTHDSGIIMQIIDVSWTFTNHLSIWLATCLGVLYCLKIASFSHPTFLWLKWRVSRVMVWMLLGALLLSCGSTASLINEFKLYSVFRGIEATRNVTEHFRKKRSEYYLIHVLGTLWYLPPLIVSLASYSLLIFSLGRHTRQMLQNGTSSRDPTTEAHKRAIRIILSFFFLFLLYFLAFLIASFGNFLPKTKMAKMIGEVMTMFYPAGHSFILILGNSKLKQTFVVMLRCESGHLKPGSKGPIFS
Put plainly: Agonist activity at recombinant human N-terminal rat ST3 receptor-fused TAS2R3 expressed in HEK293T cells co-expressing Galpha16gust44 assessed as increase in intracellular calcium level at 100 uM by FLIPR assay.

The target of test [5] is T5, Taste receptor type 2 member 5 (Homo sapiens) (UniProt Q9NYW4).
T5 sequence (whole entry): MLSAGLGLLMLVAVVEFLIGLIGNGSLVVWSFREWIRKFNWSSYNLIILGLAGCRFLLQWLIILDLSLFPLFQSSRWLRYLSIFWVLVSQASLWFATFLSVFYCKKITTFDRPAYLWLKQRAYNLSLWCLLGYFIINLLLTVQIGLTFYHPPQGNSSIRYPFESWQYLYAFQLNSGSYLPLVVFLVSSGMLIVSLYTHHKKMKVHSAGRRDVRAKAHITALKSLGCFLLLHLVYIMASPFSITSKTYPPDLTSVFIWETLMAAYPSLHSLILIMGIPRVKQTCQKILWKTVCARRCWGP
The test can be described thus: Agonist activity at recombinant human N-terminal rat ST3 receptor-fused TAS2R5 expressed in HEK293T cells co-expressing Galpha16gust44 assessed as increase in intracellular calcium level at 100 uM by FLIPR assay.

Test [6] addresses T6, Taste receptor type 2 member 16 (Homo sapiens) (UniProt Q9NYV7).
T6 sequence (whole entry): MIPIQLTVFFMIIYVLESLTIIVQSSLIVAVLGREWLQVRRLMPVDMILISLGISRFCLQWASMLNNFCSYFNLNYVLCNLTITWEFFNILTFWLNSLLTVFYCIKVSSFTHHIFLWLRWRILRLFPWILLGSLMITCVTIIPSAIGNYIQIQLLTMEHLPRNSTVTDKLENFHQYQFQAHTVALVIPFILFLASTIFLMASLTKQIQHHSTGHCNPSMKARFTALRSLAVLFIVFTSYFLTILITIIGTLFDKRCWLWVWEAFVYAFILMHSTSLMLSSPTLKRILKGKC
The test can be described thus: Agonist activity at recombinant human N-terminal rat ST3 receptor-fused TAS2R16 expressed in HEK293T cells co-expressing Galpha16gust44 assessed as increase in intracellular calcium level at 100 uM by FLIPR assay.

Test [7] deals with T7, Taste receptor type 2 member 39 (Homo sapiens) (UniProt P59534).
T7 sequence (whole entry): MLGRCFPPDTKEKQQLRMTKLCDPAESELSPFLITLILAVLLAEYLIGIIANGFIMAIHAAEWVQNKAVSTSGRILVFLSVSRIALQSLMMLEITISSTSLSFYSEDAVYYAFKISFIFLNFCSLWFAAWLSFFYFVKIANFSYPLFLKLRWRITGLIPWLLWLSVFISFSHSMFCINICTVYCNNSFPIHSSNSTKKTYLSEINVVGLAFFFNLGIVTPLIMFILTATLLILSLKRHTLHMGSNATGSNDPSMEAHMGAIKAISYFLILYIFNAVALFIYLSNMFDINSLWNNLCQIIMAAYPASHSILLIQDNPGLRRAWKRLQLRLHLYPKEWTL
The test can be described thus: Agonist activity at recombinant human N-terminal rat ST3 receptor-fused TAS2R39 expressed in HEK293T cells co-expressing Galpha16gust44 assessed as increase in intracellular calcium level at 100 uM by FLIPR assay.

The target of test [8] is T1, Taste receptor type 2 member 7 (Homo sapiens). The test can be described thus: Potentiation of quinine sulfate-induced agonist activity at recombinant human N-terminal rat ST3 receptor-fused TAS2R7 expressed in HEK293T cells co-expressing Galpha16gust44 assessed as increase in intracellular calcium level at 100 uM by FLIPR assay.

The source made the active and inactive calls. The rule behind the calls is not given here.

With `C/C1=C\C[C@H](O)/C(C)=C/[C@H]2OC(=O)[C@@H](C)[C@@H]2CC1`, the result in test [1], in test [2], in test [3] and in test [8] was Active. The outcome in test [4], in test [5], in test [6] and in test [7] was inactive.
